This note sets out measurements from patent US20130065964A1, “PERITONEAL DIALYSIS SOLUTION” (UNIVERSIDAD DE CASTILLA LA MANCHA, priority 2010, published 2013).

For test [1], the system named is p38 MAPK. Nature of the test: Phosphorylation of p38 MAPK by Western blot. It counts as cell-based. To be noted: rat PMCs, D-glucose 50 mM, FIG. 8. The source says:
Densitometric analysis of the phosphor-p38 levels normalized with respect to the controls (C). The data is expressed as mean±SEM, n=3. * p<0.05 compared to untreated cells (control). # p<0.05, compared to cells treated with D-glucose in the presence of carrier (0).
Rat peritoneal mesothelial cells were isolated by enzymatic digestion in accordance with protocols described in Hjelle J T, Golinska B T, Waters D C, et al. Perit Dial Int 1989; 9: 341-7. Briefly, female rats weighing 200-400 g of the Spragle-Dawley strain were sacrificed pursuant to Royal Decree 1201/2005, of 10 Oct., on protection of animals used for experimental and other scientific purposes. The abdominal cavity was quickly opened and the abdominal wall (peritoneum and smooth muscle) extracted under sterile conditions. […]
In order to obtain the total protein of the cell cultures, the culture medium was collected and replaced with PBS. […] The protein content of the cell lysates was determined using the Bradford method, following the standard protocol (Vorobiov M, Malki M, Shnaider A, et al. Perit Dial Int 2008; 28: 648-54). A quantity of 20 μg of protein/well of each sample was loaded onto 10% polyacrylamide gels. […] Band intensity was quantified by grey levels using an appropriate image analysis system (Quantity One).

Test [2] relates to fibronectin. Nature of the test: Real-time RT-PCR in PMCs from dialysed rats. To be noted: peritoneal cells from rats dialysed four weeks, aliskiren 0.1 or 1 mg/Kg, FIG. 17. It counts as in vivo, rat. How it is done:
The rats were exposed daily for four weeks to carrier (saline serum), 1.5% PDF, 2.3% PDF or 4.5% PDF supplemented by carrier, 0.1 mg/Kg aliskiren or 1 mg/Kg aliskiren. The data is expressed as mean±SEM, n=6 rats per group.* p<0.05, compared to the group treated with carrier in the absence of aliskiren (carrier). # p<0.05, compared to their respective groups treated with PDFs in the absence of aliskiren. […]
At the end of the experimental period (four weeks), 30 ml of a commercial PDF with 2.3% glucose (Fresenius Medical Car, Bad Homburg, Germany) was administered intraperitoneally using a 22G needle. […] Their body weight was measured at the start and end of the experimental period. […]
The blood and dialysate samples were centrifuged and stored at −20° C. The concentrations of creatinine and glucose in the serum and dialysate were measured using enzymatic methods. The peritoneal transport of solutes was calculated, on one hand, as the glucose concentration in the dialysate 2 hours after the PET relative to the initial glucose concentration in the PDF (D2/D0 glucose) and, on the other, as the dialysate/plasma creatinine concentration ratio (D2/P2 creatinine) 2 h after the PET. […]
The RNA expression was evaluated by real-time RT-PCR in PMCs. […] RNA quality and concentration was evaluated by spectrophotometry (Infinite 200, Tecan, Salzburg, Austria) using 1 μl of the RNA sample. […]

For the compound `COCCCOc1cc(C[C@@H](C[C@H](N)[C@@H](O)C[C@H](C(=O)NCC(C)(C)C(N)=O)C(C)C)C(C)C)ccc1OC` [aliskiren], the “phosphorylation of protein p38” value in test [1] is “prevented”. In test [2], the “RNAm expression of fibronectin” value is given as “increased”.
